Series [1] concerns endometrial cancer. Conditions: cited from earlier work.
The subject of series [2] is plasma kynurenine levels (IDO1 inhibition).
Description: Clinical laboratory tests are performed, including measurement of kynurenine levels in blood plasma and tumor samples.
Plasma kynurenine levels were measured by an LC-MS/MS method at World Wide Clinical Trials, Inc. Patient samples were obtained pre-dose and at defined times following treatment.
Plasma kynurenine was measured pre-treatment (C1D1) and at the indicated visits.
Series [3] can be described thus: Safety and dose-limiting toxicity in Phase 1b dose-finding study (INCMGA 0012-102). Conditions: epacadostat 900 mg BID with ANTIBODY X 500 mg Q4W. The series is classed as in vivo. The text has this:
The study is an open-label, nonrandomized, multicenter, Phase 1b study with independent treatment groups.
For dose escalation, a Bayesian optimal interval (BOIN) design with a cohort size of approximately 3 evaluable participants is used. The target rate of dose-limiting toxicities (DLTs) is assumed to be 30% for each combination. At each dose level, a maximum of 9 participants are enrolled.
Participants in the dose-escalation cohorts are observed for 28 days for occurrence of DLTs.
The MTD is defined as the highest dose at which less than approximately one-third of the participants have a DLT. Dose-limiting toxicities occurring during the first 28 days of treatment guide dose escalation and determination of the MTD and RP2D. In addition, participants with late-onset safety events meeting the definition of DLT or those who had intolerable, lower grade persistent toxicity determined to be attributable to either study drug (e.g., Grade 2 peripheral neuropathy) are considered in the selection of each combination RP2D. […]
A DLT is defined as the occurrence of any of the toxicities listed in Table 4 that are possibly, probably, or definitely due to study treatment occurring from the start of treatment up to and including Day 28. All DLTs will be assessed by the investigator using Common Terminology Criteria for Adverse Events: Version 5 (CTCAE v5) criteria. […]

[4] abbreviates: first line therapy in advanced endometrial cancer.
[5] abbreviates: MSI-H or MMR deficient endometrial cancer progressed on prior therapy.

“Also recorded” adds a separate entry of the source. Read-outs that look alike come from different tables or passages of the source.

For `CC(=O)O[C@@]12CO[C@@H]1C[C@H](O)[C@@]1(C)C(=O)[C@H](O)C3=C(C)[C@@H](OC(=O)[C@H](O)[C@@H](NC(=O)OC(C)(C)C)c4ccccc4)C[C@@](O)([C@@H](OC(=O)c4ccccc4)[C@H]21)C3(C)C` [docetaxel], the “RR (response rate)” value in series [1] (endometrial cancer patients treated with paclitaxel in first line therapy) is given as 8%.

With `CC(=O)O[C@H]1C(=O)[C@@]2(C)[C@H]([C@H](OC(=O)c3ccccc3)[C@]3(O)C[C@H](OC(=O)[C@H](O)[C@@H](NC(=O)c4ccccc4)c4ccccc4)C(C)=C1C3(C)C)[C@]1(OC(C)=O)CO[C@@H]1C[C@@H]2O` [Paclitaxel], the “RR (response rate)” value in series [1] (endometrial cancer patients previously treated with combination of cisplatinum and doxorubicin) is listed as 25%.

Turning to carboplatin and paclitaxel, in series [1] (setting [4]), the ORR result is “approximately 50%”, the OS is 3 years and the PFS was 13 months.

Consider “Pembrolizumab: another anti-PD-1 antibody”, for which, in series [1] (setting [5]), the “ORR for EC” value was 36% and the duration of response is 4-17 months.

For the compound `NS(=O)(=O)NCCNc1nonc1C(=NO)Nc1ccc(F)c(Br)c1` [epacadostat, 4-({2-[(aminosulfonyl)amino]ethyl}amino)-N-(3-bromo-4-fluorophenyl)-N′-hydroxy-1,2,5-oxadiazole-3-carboximidamide], in series [2] (600 mg BID epacadostat (Group 2) vs 100 mg BID (Group 1), with ANTIBODY X 500 mg Q4W, day 8 of treatment, solid tumor patients, 3 per group), the “reductions in plasma kynurenine levels compared to Group 1” value was “increased reductions in plasma kynurenine levels”. Further, in series [2] (600 mg BID epacadostat with ANTIBODY X 500 mg Q4W, after 5 weeks of treatment), the “patients showing sustained reductions in plasma kynurenine” value is 2/3. In addition, the “decreases in plasma kynurenine over visits (FIG. 1)” value in series [2] (epacadostat 600 mg BID with ANTIBODY X, pre-treatment (C1D1) vs later visits) is listed as “sustained (up to 4 months) decreases in plasma kyn in most patients; also recorded: sustained (up to 4 months) decreases in plasma kynurenine levels in most patients”. For the same compound, the normalization of kynurenine result in series [2] (epacadostat 600 mg BID with ANTIBODY X, preliminary observations) was “durable normalization of kynurenine”. Moreover, the “maximum tolerated dose (MTD) assessment” value in series [3] is reported as “exceeded the MTD”.

Source of the values: patent US20210030869A1, “DOSING REGIMEN FOR AN IDO INHIBITOR” (Incyte Corporation, priority 2019, published 2021).
